Laboratory results: patent publication US20260103679A1, “COMPOSITIONS COMPRISING REGULATORY T CELLS AND METHODS OF USING THE SAME” (Cellenkos, Inc., priority 2021, published 2026)

System: xenogeneic mouse graft versus host disease (GVHD) model
Conditions: in vivo
Description: FIG. 33 depicts a schematic for treatment of a xenogeneic mouse graft versus host disease (GVHD) model with a ruxolitinib and activated Treg cells regimen. PBMC=peripheral blood mononuclear cells.
A xenogeneic mouse graft versus host disease (GVHD) model was treated with a ruxolitinib and activated CB Treg cells regimen, as depicted in FIG. 33. NSG mice underwent sublethal irradiation on day −1 followed by injection of 1×10^7 donor peripheral blood (PB) mononuclear cells (MNCs) on day 0. Oral ruxolitinib at 1 mg daily was fed continuously to the mice in the presence or absence of 1×10^7 CB Treg cells, tagged with CellTrace™ Violet dye (ThermoFisher), administered on days +4, +7, +11, +18. Mice were followed every other day for weight, GVHD score and survival. Serial blood draws were performed to analyze for cell compartment and cytokine assays.

With `N#CC[C@H](C1CCCC1)n1cc(-c2ncnc3[nH]ccc23)cn1` [ruxolitinib] as the molecule, how does the “CB Treg persistence” value read?
Its value is “improved”.
